Consider 2 compounds from patent publication US7820060B2, “Synergistic biocide and process for controlling growth of microorganisms” (Hercules Incorporated, priority 2005, dated 2010).

Assay [1] relates to multi-species bacterial consortium (artificial consortium). Put plainly: Dose protocol: growth inhibition (O.D. 650 nm, 4 hours) of artificial bacterial consortium in synthetic white water, I50 and synergy index. The format is cell-based. The following applies: for Synergy Index: <1.00 synergistic; for mg/l NH2Cl (alone or in the mixture) to yield 50% inhibition (I50) / mg/l NHCl2 (alone or in the mixture) to yield 50% inhibition (I50): concurrent feed, mg/l as Cl2. The protocol: The efficacies of the active materials and blends were determined using a dose protocol. The actives were evaluated in synthetic white water (see Smith et al., U.S. Pat. […] The materials were tested against multi-species bacterial consortium (also referred to as an artificial consortium) containing approximately equal numbers of six bacterial strains. Although the test strains are representative of organisms present in paper mill systems, the effect is not limited to these bacteria. Two of the strains were Klebsiella pneumonia (ATCC 13883) and Pseudomonas aeruginosa (ATCC 15442). The other four strains were isolated from paper mill systems and have been identified as Curtobacterium flaccumfaciens, Burkholderia cepacia, Bacillus maroccanus, and Pseudomonas […]. Each strain was grown on Tryptic Soy Agar overnight at 37° C. Sterile cotton-tipped swabs were used to aseptically transfer cells to a sterile solution of saline. Each cell suspension was prepared to a desired concentration as measured by turbidity before equal volumes of each strain were then combined to prepare the consortium. The bacterial consortium was distributed into the wells of a microtiter plate before additions of monohaloamine and/or dihaloamine were made. The microtiter plates were incubated at 37° C. Optical density (O.D.) readings at 650 nm were taken initially (t0) and after time 4 hours (t4) of incubation. […] The inhibition values can be plotted versus dosage for each active and the particular blend. […] Synergy Index (SI)=(QA÷Qa)+(QB÷Qb) where: • QA=quantity of compound A in mixture, producing the end point • Qa=quantity of compound A, acting alone, producing the end point • QB=quantity of compound B in mixture, producing the end point • Qb=quantity of compound B, acting alone, producing the end point […] A measured amount of monochloramine and a measured amount of dichloramine were added to a suspension of bacteria and the cell suspension incubated for a selected time period. The effectiveness of the combination of biocides was determined by measuring growth or lack thereof after an additional appropriate incubation time.

Assay [2] deals with artificial bacterial consortia. Put plainly: Standard challenge assay: numbers of bacteria surviving after contact time in mineral salt solution. The format is cell-based. The protocol:
The antibacterial efficacy of monochloramine and dichloramine alone and in combination were compared in a standard challenge assay. To perform the assay, artificial bacterial consortia were prepared using the same species as those in the microtiter assays. A mineral salt solution was prepared by combining K2HPO4 (1.2 mg/l), KH2PO4 (0.624 mg/l), (NH4)2SO4 (0.05 g/l), and NaCl (0.1 mg/l). This solution was sterilized by autoclaving (121° C., 15 min) and, after cooling, it was amended with the following: 10 ml/l of filter sterilized solution of 0.5% (w/v) of CaCl2.6H2O; 10 ml/l of filter sterilized solution of 2% MgSO4.7H2O; filter-sterilized glucose (0.01 g/l, final concentration); 1 ml of a filter-sterilized solution containing Na2EDTA (ethylene diamine tetra acetate) (1.58 g/100 ml), ZnSO4.7H2O (0.7 g/100 ml); MnSO4—H2O (0.18 g/100 ml); FeSO4.7H2O (0.16 g/100 ml); COCl2.6H2O (0.052 g/100 ml); NaMoO4.2H2O (0.042 g/100 ml); and CuSO4.5H2O (0.047 g/100 ml). Equal volumes of cell suspensions of each strain were then combined to prepare the consortium. The bacterial consortium was distributed into sterile glass containers and immediately used in challenge studies. To determine the effect of pH of the mineral salt solution on efficacy of monochloramine, dichloramine, and combinations thereof, the pH of the cell suspension was adjusted to desired levels using dilute solutions of sodium hydroxide or phosphoric acid, as appropriate. The pH values tested in the challenge studies were 5.0, 6.0, 7.0, and 8.0. The pH values represent the pH of whitewater typical of the majority of paper mills.
After the monohaloamine solution was prepared, the quantity needed to achieve a desired final concentration was transferred to the previously prepared bacterial consortium. Samples of the bacterial consortium were collected immediately before addition of the monochloramine and after contact times, usually 1, 10, and 20 minutes. Controls were untreated cell suspensions.
To perform a challenge study, monochloramine was prepared to a desired concentration by mixing appropriate quantities of 30% ammonium hydroxide and 6.2% percent sodium hypochlorite in a volume of deionized water in such a manner as to achieve equimolar ratios of Cl^− and NH2^+. After preparation of the monochloramine solution, the purity of the solution was verified by determining its absorbance spectrum. To prepare a dichloramine solution, the pH of a monochloramine solution was adjusted to down to 5.0. This ensured conversion of monochloramine to dichloramine. […] The concentrations of monochloramine and dichloramine in the solutions were confirmed by measuring total chlorine concentration by Hach DPD chlorine test.
In this example, a measured amount of monochloramine and a measured amount of dichloramine were added to a consortium of bacteria prepared to a density of approximately 1×10^6 cells per milliliter and the cell suspension incubated for a selected time. The consortium of bacteria is described above. The effectiveness of the combination of biocides was determined by measuring the number of bacteria that survived after the contact time. The efficacy of monochloramine, dichloramine, and combinations of the two actives were compared at different pH values. Bacterial consortia were prepared in mineral salts solutions with pH adjusted to selected values and challenged with monochloramine and dichloramine and combinations thereof. Samples for enumerating the number of surviving bacteria were collected at selected time intervals.
Although synergy was detected when monochloramine and dichloramine were combined in a 1:1 ratio, the results of Example 1 illustrated that optimum ratios were larger than 1:1 (monochloramine to dichloramine). In this example, bacterial consortia were prepared with the pH of the mineral salts solution adjusted to selected levels immediately before the cells were added. […]

[3] abbreviates: pH 5.5, based on 50% inhibition.
Setting [4] is: pH 8.0, based on 50% inhibition.

As for `NCl` [NH2Cl, monochloramine], the “Synergy Index” value in assay [1] (setting [3]) and in assay [1] (setting [4]) was 1.00 in each case. Further, the “mg/l NH2Cl (alone or in the mixture) to yield 50% inhibition (I50)” value was determined as 18.21 mg/L in assay [1] (pH 5.5, synthetic white water) and 7.96 mg/L in assay [1] (pH 8.0, synthetic white water). Further, the “Numbers of bacteria surviving after a 20 minute contact time (average of three values)” value (“Numbers of bacteria surviving” below) in assay [2] (pH 5.0, 0.5 mg/l single active) is listed as 4.97 log10; in assay [2] (pH 5.0, 1.0 mg/l single active), 3.94 log10; in assay [2] (pH 6.0, 0.5 mg/l single active), 5.14 log10; in assay [2] (pH 6.0, 1.0 mg/l single active), 5.14 log10; in assay [2] (pH 7.0, 0.5 mg/l single active) it was 5.47 log10; in assay [2] (pH 7.0, 1.0 mg/l single active), 5.17 log10. Moreover, the “Numbers of bacteria surviving” value in assay [2] (pH 8.0, 0.5 mg/l single active) amounted to 5.74 log10; in assay [2] (pH 8.0, 1.0 mg/l single active), 5.71 log10.
As to `ClNCl` [NHCl2, dichloramine], the “Synergy Index” value in assay [1] (setting [3]) and in assay [1] (setting [4]) was 1.00 each time. The “mg/l NHCl2 (alone or in the mixture) to yield 50% inhibition (I50)” value is 17.23 mg/L in assay [1] (pH 5.5, synthetic white water) and 0.59 mg/L in assay [1] (pH 8.0, synthetic white water). In addition, the “Numbers of bacteria surviving” value in assay [2] (pH 5.0, 0.5 mg/l single active) is 5.58 log10; in assay [2] (pH 5.0, 1.0 mg/l single active), 4.47 log10; in assay [2] (pH 6.0, 0.5 mg/l single active), 5.17 log10; in assay [2] (pH 6.0, 1.0 mg/l single active), 3.62 log10; in assay [2] (pH 7.0, 0.5 mg/l single active), 5.52 log10; in assay [2] (pH 7.0, 1.0 mg/l single active), 5.40 log10. Besides, the “Numbers of bacteria surviving” value in assay [2] (pH 8.0, 0.5 mg/l single active) is listed as 5.62 log10; in assay [2] (pH 8.0, 1.0 mg/l single active) it was 5.26 log10.
